Results on 42 compounds are retold here after patent US8507235B2, “Isoprene production using the DXP and MVA pathway” (Danisco US Inc., priority 2009, dated 2013).

Several values for one entry are separate records, joined by “and”; a condition that tells them apart may be missing. Equal values may be shown once. Read-outs that look alike come from different tables or passages of the source.

Series [1] relates to E. coli strain MCM597. Put plainly: Carbon sources useful for the production of isoprene (Biolog PM1 plate). It is filed as cell-based. Particulars: 0.2% yeast extract, compound as carbon source; normalized to α-D-glucose.
For series [2], the system named is E. coli strain MCM597. Put plainly: Carbon sources affecting isoprene production during growth on glucose (Biolog PM1 and PM2A plates). It is filed as cell-based. Particulars: 0.5% glucose, 0.2% yeast extract; normalized to control only fed glucose; p<0.1.
Series [3] concerns E. coli strain MCM597. Put plainly: Nitrogen sources affecting isoprene production (Biolog PM3B plates). The conditions noted are these: 0.5% glucose as sole carbon source, no yeast extract; p<0.1. The series is classed as cell-based.
Series [4] is described as follows: Flammability limits of isoprene (computer simulation and experimental testing). The series is classed as physicochemical. The source says: Thus, computer modeling and experimental testing were used to determine the flammability limits of isoprene (such as isoprene in the presence of O2, N2, CO2, or any combination of two or more of the foregoing gases) in order to ensure process safety. The flammability envelope is characterized by the lower flammability limit (LFL), the upper flammability limit (UFL), the limiting oxygen concentration (LOC), and the limiting temperature. For a system to be flammable, a minimum amount of fuel (such as isoprene) must be in the presence of a minimum amount of oxidant, typically oxygen. The LFL is the minimum amount of isoprene that must be present to sustain burning, while the UFL is the maximum amount of isoprene that can be present. Above this limit, the mixture is fuel rich and the fraction of oxygen is too low to have a flammable mixture. The LOC indicates the minimum fraction of oxygen that must also be present to have a flammable mixture. The limiting temperature is based on the flash point of isoprene and is that lowest temperature at which combustion of isoprene can propagate. These limits are specific to the concentration of isoprene, type and concentration of oxidant, inerts present in the system, temperature, and pressure of the system. […]

For series [5], the system named is strains REM H8—12 and REM I7—11. It is filed as cell-based, E. coli.
The target in series [6] is T1, Dxr from E. coli (Escherichia coli, UniProt P45568).
T1 construct: His tag (pET15b) (N); made in house; host or cells: E. coli BL21(λDE3)
T1 sequence (P45568 whole entry): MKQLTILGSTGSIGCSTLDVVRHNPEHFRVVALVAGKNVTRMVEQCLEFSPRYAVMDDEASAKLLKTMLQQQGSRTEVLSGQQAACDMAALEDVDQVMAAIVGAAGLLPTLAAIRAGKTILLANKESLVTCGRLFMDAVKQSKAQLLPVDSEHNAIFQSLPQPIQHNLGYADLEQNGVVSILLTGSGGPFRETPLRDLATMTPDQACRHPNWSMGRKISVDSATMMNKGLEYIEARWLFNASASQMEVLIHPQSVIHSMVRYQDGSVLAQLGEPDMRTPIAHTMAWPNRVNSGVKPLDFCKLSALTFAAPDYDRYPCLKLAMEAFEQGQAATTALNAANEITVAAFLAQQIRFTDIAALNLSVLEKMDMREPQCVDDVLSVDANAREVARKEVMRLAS
Description: Dxr inactivation by incubation with DMAPP and HDMAPP. It is filed as biochemical. The conditions noted are these: purified Dxr from E. coli.
Description: The purified protein, 5 uM, was incubated at several concentration of DMAPP or HMBPP (Echelon Bioscience, Salt Lake City, Utah) in buffer consisting of 100 mM Tris, 100 mM NaCl pH 8, 5 mM MgCl2, 0.2 mM NADPH, 0.2 mM DXP, and 250 nM DXR. D at 37° C. for two hour in a total volume of 50 uL. Dxr activity was measured periodically according to standard assay, see, e.g., Koppisch et al, Biochemistry, 41:236-43 (2002) with a 20-fold dilution of the inactivation reaction mixture. […] Where appropriate additional control activity assays were conducted in the presence of a 20-fold diluted concentration of inactivators (DMAPP or HMBPP).

The conditions of series [7]: about 1 atmosphere and about 60° F.; cited from earlier work.
Series [8] deals with E. coli BL21 strain harboring the GI1.6-dxr locus. Description: Isoprene production with fosmidomycin in the growth media, GI1.6-dxr strain. The conditions noted are these: 1 mM fosmidomycin in the growth media. It is filed as cell-based.
Series [9] concerns REM A2—17 strain. Put plainly: Accumulation of DXP and MVA pathway metabolites in REM A2—17 with and without fosmidomycin (LC-MS/MS). Particulars: 2 mM fosmidomycin, 45 min. incubation. The series is classed as cell-based, E. coli.
Series [10] has as its system REM A2—17 strain. Put plainly: Specific productivity of isoprene of strain REM A2—17 in the presence and absence of fosmidomycin (headspace assay). It is filed as cell-based, E. coli. The conditions noted are these: 2 mM fosmidomycin; for activity at 2000 µM: Escherichia coli, 0.75 h, read-out: fraction of isoprene produced during exposure to fosmidomycin relative to absence of the inhibitor (MVA-flux).

The subject of series [11] is dxr null E. coli BL21 strain. It is filed as cell-based.
[12] abbreviates: approx. 45 minutes, unlabeled culture without tryptophan (FIG. 98).

Consider `O=C[C@H](O)[C@@H](O)[C@H](O)[C@H](O)COP(=O)(O)O` [D-glucose-6-phosphate], for which the “specific productivity of isoprene” value in [1] was “increasing”.
`CC(O)C(C)O` (stereo not drawn) [2,3-butanediol]: the “specific productivity of isoprene” value in [2] is given as “increasing”.
In the case of `Nc1nc2c(ncn2[C@@H]2O[C@H](CO)[C@@H](O)[C@H]2O)c(=O)[nH]1` [guanosine], the specific isoprene production entry in series [3] was “increasing”.
For `C=CC(=C)C` [isoprene, 2-methyl-1,3-butadiene], the limiting temperature entry in [4] is “about −54 °C”. In addition, the “limiting oxygen concentration (LOC)” value in [4] (isoprene, O2, N2, and CO2 mixture at 40° C. and 1 atmosphere) is recorded as 9.5 vol %.
For `C[C@@H](O)[C@H](N)C(=O)O` [L-threonine], in series [3], the specific isoprene production entry is listed as “increasing”.
As for `OC[C@H]1O[C@H](O[C@H]2O[C@H](CO)[C@@H](O)[C@H](O)[C@H]2O)[C@H](O)[C@@H](O)[C@@H]1O` [D-trehalose], the “specific productivity of isoprene” value in [1] is “increasing”.
Turning to `Nc1ncnc2nc[nH]c12` [adenine], the specific isoprene production entry in series [3] is “negatively affecting”.
With `N[C@@H](CCC(=O)O)C(=O)O` [L-glutamic acid], the specific isoprene production entry in [3] is reported as “increasing”.
With `C[C@@](O)(CCO)CC(=O)O` [mevalonic acid, (R)-mevalonic acid], in [5], the “isoprene specific productivity from mevalonate (m/z of 67)” value is recorded as “increased with increasing mevalonic acid concentration” and the “specific productivity of isoprene from [U-13C]-glucose (m/z of 73)” value is “the same”.
`N[C@@H](Cc1ccc(O)cc1)C(=O)O` [L-tyrosine]: the specific isoprene production entry in series [3] is “negatively affecting”.
Turning to `N[C@@H](CC(=O)O)C(=O)O` [L-aspartic acid], the specific isoprene production entry in series [3] is recorded as “increasing”.
In the case of `N` [ammonia], in series [3], the specific isoprene production result was “did not significantly change”.
In the case of `C/C(=C\COP(=O)(O)OP(=O)(O)O)CO` [HMBPP, 1-hydroxy-2-methyl-2-(E)-butenyl 4-diphosphate], in [6], the “Dxr activity after incubation with the compound” value is reported as “inactivated”.
For `CSCC[C@H](N)C(=O)O` [L-methionine], in [3], the specific isoprene production entry is reported as “negatively affecting”.
As to `O=C(O)[C@H](O)[C@@H](O)[C@H](O)[C@H](O)CO` [D-gluconic acid], in series [2], the “specific productivity of isoprene” value is “increasing”.
In the case of `O=C1O[C@H]([C@@H](O)CO)[C@@H](O)[C@@H]1O` [L-galactonic acid-γ-lactone], in series [2], the “specific productivity of isoprene” value was “increasing”.
Still for that read-out and setting: the result for `O=C[C@@H](O)[C@@H](O)[C@H](O)[C@H](O)CO` [D-mannose] reads “increasing”; that for `O=C(CO)[C@H](O)[C@H](O)[C@H](O)CO` [D-psicose], “increasing”.
For `CCO` [ethanol], in series [7], the “limiting oxygen concentration (LOC)” value is “about 8.7 vol %” and the “lower flammability limit (LFL)” value is listed as “about 3.3 vol %”.
On to `O=C(O)[C@@H](O)[C@H](O)[C@H](O)[C@@H](O)C(=O)O` [mucic acid], for which the “specific productivity of isoprene” value in series [2] is listed as “increasing”.
For `CCC(=O)O` [propionic acid], the “specific productivity of isoprene” value in series [2] is listed as “increasing”.
`OC[C@H]1O[C@@H](n2cnc3c(O)ncnc32)[C@H](O)[C@@H]1O` [inosine]: in series [2], the “specific productivity of isoprene” value is given as “increasing”. Also, the specific isoprene production result in [3] is “increasing”.
Regarding `NCCc1ccccc1` [phenylethylamine], in [2], the “specific productivity of isoprene” value is “increasing”.
The same measure, in the same setting: as for `N[C@@H](C(=O)O)[C@@H](O)[C@H](O)[C@H](O)CO` [D-glucosaminic acid], the entry is “increasing”.
`O=[N+]([O-])O` [nitrate]: in series [3], the specific isoprene production result is on record as “did not significantly change”.
Consider `NCCO` [2-aminoethanol], for which, in series [2], the “specific productivity of isoprene” value is “increasing”.
`O=C[C@H](O)[C@@H](O)[C@@H](O)[C@H](O)C(=O)O` [D-galacturonic acid]: the “specific productivity of isoprene” value in series [2] and in [1] was “increasing” in each case.
Consider `N[C@@H](Cc1c[nH]c2ccccc12)C(=O)O` [L-tryptophan], for which the specific isoprene production result in series [3] was “increasing”.
In the case of `O=C(O)C[C@H](O)C(=O)O` [L-malic acid], in series [2], the “specific productivity of isoprene” value is “increasing”.
`N[C@@H](CO)C(=O)O` [L-serine]: the specific isoprene production result in [3] is “increasing”.
As for `OC[C@H]1O[C@H](O)[C@H](O)[C@@H](O)[C@@H]1O` [α-D-glucose], the “specific productivity of isoprene” value in series [1] is given as “increasing”.
For the compound `O=C(CO)[C@@H](O)[C@H](O)[C@H](O)CO` [D-fructose], the “specific productivity of isoprene” value in series [1] is “increasing”.
For `NC(=O)C[C@H](N)C(=O)O` [L-asparagine], the specific isoprene production entry in series [3] was “increasing”.
As for `OC[C@H]1O[C@@H](O[C@H]2[C@H](O)[C@@H](O)[C@H](O)O[C@@H]2CO)[C@H](O)[C@@H](O)[C@@H]1O` [D-cellobiose], the “specific productivity of isoprene” value in series [2] is given as “increasing”.
Take `OC[C@H]1O[C@@](CO)(O[C@H]2O[C@H](CO)[C@@H](O)[C@H](O)[C@H]2O)[C@@H](O)[C@@H]1O` [sucrose]: in [2], the “specific productivity of isoprene” value was “increasing”.
In the case of `O=NO` [nitrite], in [3], the specific isoprene production result was “did not significantly change”.
As for `NC(N)=O` [urea], in series [3], the specific isoprene production entry is “did not significantly change”.
Consider `NC(=O)[C@@H](O)[C@@H](O)[C@H](O)[C@@H](O)C=O` [glucuronamide], for which, in series [2], the “specific productivity of isoprene” value is on record as “increasing”.
Regarding `OC[C@@H](O)[C@@H](O)[C@H](O)[C@H](O)CO` [D-mannitol], in series [1], the “specific productivity of isoprene” value is reported as “increasing”.
On to `O=CN(O)CCCP(=O)(O)O` [fosmidomycin], for which the isoprene production result in [8] was “undetectable level”; in series [11], “same level of isoprene production”. Also, the DXP concentration entry in series [9] is “significant increase”. Moreover, the HDMAPP concentration result in series [9] is reported as “decrease”. The “concentration of MEP, CDP-ME and cMEPP” value in series [9] is given as “drop”. In addition, the “concentration of MVA” value in series [9] is on record as “did not change”. Besides, in series [9], the “decrease of the cumulative amount of IPP and DMAPP” value stood at 55%. Besides, the “decrease in isoprene production with fosmidomycin (DXP-flux)” value in series [10] (1-13C glucose culture with 50 uM tryptophan (FIG. 98)) was 51%; in series [10] (1-13C glucose culture without tryptophan), 42% and 43%. The “decrease in isoprene production with fosmidomycin (DXP pathway contribution)” value in series [10] (3-13C glucose) was 43% and ~42%; in series [10] (setting [12]) it was roughly 48%; in series [10] (approx. 45 minutes, unlabeled glucose (FIG. 96, 97)) it was 41%. Further, the “fraction of isoprene produced during exposure to fosmidomycin relative to absence of the inhibitor (MVA pathway contribution)” value in series [10] (setting [12]) is reported as “roughly 52%”; in series [10] (approx. 45 minutes, unlabeled glucose (FIG. 96)), “roughly 59%”; in series [10] (approx. 1 hour, 3-13C glucose (FIG. 99)), “roughly 58%”. For the same compound, the activity at 2000 µM in series [10] (approx. 45 minutes, 1-13C glucose culture with 50 uM tryptophan (FIG. 98)) worked out at 49%; in series [10] (approx. 45 minutes, 1-13C glucose culture without tryptophan (FIG. 98)) it was 57%.
With `N[C@@H](Cc1ccccc1)C(=O)O` [L-phenylalanine], the “specific productivity of isoprene” value in [2] was “increasing”.
For the compound `CC(=O)N[C@H]1C(O)O[C@H](CO)[C@@H](O)[C@@H]1O` (stereo partly drawn) [N-acetyl-D-glucosamine], the “specific productivity of isoprene” value in [1] is “increasing”.
